For experiment [1], the system named is human prostate PC3-mm2 tumor cell line. Nature of the experiment: In vitro cell culture growth assay (MTS), PC3-mm2. It counts as cell-based.
Experiment [2] concerns human breast MDA-MB-361 tumor cell line. Nature of the experiment: In vitro cell culture growth assay (MTS), MDA-MB-361. The format is cell-based.
In the next experiment the target is PI3K-γ (Homo sapiens, UniProt P48736). Nature of the experiment: PI3K-gamma fluorescence polarization assay. The following applies: read-out: IC50 PI3Kγ. (In general: Fluorescence polarisation rises when a labelled molecule tumbles more slowly, as on binding a larger partner.)
The target of a further experiment is PI3K-α (Homo sapiens, UniProt P42336). Nature of the experiment: PI3K-alpha fluorescence polarization assay. The note with it: read-out: IC50 PI3Kα.
In a further experiment the target is Human mTOR (FLAG-TOR) (Homo sapiens, UniProt P42345). Nature of the experiment: mTOR kinase assay (DELFIA format, purified enzyme). The format is biochemical. The note with it: read-out: IC50 mTOR.
Setting [3] is: MTS cell growth assay, three days after drug treatment, PC3-mm2 cells, read-out: IC50 PC3-mm2.
Setting [4] is: MTS cell growth assay, three days after drug treatment, MDA-MB-361 cells, read-out: IC50 MDA-MB-361.
Where [5] appears, read: Homo sapiens, PC3MM2, 72 h, MTS cell growth assay, three days after drug treatment, read-out: IC50 PC3-mm2.
[6] abbreviates: Homo sapiens, MDA-MB-361, 72 h, MTS cell growth assay, three days after drug treatment, read-out: IC50 MDA-MB-361.
[7] abbreviates: Homo sapiens, PC3MM2, 72 h, MTS cell growth assay, three days after drug treatment, PC3-mm2 cells, read-out: IC50 PC3-mm2.
[8] abbreviates: Homo sapiens, MDA-MB-361, 72 h, MTS cell growth assay, three days after drug treatment, MDA-MB-361 cells, read-out: IC50 MDA-MB-361.
The mark [9] stands for this setting: Homo sapiens, 72 h, MTS cell growth assay, three days after drug treatment, MDA-MB-361 cells, read-out: IC50 MDA-MB-361.

Several values for one entry are separate records, joined by “and”; a condition that tells them apart may be missing. Identical values can stand only once. Like-named read-outs stand apart in the source and are kept apart here.

PI3K-α, sequence (P42336 whole entry, species assumed): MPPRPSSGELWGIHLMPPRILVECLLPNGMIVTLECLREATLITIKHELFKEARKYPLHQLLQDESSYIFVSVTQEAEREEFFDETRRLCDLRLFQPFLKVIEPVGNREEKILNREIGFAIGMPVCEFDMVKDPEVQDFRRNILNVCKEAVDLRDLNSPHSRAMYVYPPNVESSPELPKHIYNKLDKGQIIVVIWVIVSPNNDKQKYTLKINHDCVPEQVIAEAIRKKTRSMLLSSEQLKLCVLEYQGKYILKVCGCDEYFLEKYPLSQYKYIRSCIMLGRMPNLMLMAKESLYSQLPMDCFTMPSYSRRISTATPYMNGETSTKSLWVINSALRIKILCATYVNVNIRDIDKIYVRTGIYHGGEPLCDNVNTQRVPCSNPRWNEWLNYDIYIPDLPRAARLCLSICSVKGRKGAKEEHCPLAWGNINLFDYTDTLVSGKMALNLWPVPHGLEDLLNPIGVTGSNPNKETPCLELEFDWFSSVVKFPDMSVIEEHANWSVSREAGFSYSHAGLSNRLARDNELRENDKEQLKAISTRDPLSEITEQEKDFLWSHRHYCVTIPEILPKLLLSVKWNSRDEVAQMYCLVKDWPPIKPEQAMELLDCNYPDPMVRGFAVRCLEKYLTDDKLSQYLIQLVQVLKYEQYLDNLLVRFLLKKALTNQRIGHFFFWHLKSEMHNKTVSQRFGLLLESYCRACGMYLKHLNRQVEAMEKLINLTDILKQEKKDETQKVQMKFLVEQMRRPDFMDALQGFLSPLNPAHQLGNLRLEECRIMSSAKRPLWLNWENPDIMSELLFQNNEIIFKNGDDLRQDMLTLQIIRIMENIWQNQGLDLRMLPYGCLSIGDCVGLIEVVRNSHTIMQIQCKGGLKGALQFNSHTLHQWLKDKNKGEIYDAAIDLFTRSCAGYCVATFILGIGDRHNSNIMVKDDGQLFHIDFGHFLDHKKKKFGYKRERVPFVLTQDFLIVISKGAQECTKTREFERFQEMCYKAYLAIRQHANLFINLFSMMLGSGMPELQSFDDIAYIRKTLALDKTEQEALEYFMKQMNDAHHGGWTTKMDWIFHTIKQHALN
PI3K-α, sequence (P27986 whole entry partner, species assumed): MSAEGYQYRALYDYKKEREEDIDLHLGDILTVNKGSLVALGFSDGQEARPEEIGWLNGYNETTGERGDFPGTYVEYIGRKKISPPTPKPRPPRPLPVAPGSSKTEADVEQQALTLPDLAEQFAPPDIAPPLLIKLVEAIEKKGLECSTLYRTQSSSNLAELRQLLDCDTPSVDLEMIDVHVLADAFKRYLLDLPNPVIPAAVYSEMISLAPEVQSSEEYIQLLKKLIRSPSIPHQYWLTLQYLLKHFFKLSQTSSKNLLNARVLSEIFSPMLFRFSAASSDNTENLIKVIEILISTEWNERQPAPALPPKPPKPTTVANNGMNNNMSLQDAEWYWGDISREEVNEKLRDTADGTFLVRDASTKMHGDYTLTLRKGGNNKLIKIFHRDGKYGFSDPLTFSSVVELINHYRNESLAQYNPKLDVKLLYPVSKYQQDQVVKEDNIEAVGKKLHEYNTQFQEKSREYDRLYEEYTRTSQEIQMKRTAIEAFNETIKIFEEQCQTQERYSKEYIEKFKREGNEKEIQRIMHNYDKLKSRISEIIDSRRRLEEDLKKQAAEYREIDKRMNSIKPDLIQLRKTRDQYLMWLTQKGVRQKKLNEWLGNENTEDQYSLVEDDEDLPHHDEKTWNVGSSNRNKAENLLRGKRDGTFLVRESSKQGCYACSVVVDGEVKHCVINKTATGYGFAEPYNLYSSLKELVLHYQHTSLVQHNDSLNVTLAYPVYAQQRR
Human mTOR (FLAG-TOR), sequence (P42345 1360-2549 limits assumed): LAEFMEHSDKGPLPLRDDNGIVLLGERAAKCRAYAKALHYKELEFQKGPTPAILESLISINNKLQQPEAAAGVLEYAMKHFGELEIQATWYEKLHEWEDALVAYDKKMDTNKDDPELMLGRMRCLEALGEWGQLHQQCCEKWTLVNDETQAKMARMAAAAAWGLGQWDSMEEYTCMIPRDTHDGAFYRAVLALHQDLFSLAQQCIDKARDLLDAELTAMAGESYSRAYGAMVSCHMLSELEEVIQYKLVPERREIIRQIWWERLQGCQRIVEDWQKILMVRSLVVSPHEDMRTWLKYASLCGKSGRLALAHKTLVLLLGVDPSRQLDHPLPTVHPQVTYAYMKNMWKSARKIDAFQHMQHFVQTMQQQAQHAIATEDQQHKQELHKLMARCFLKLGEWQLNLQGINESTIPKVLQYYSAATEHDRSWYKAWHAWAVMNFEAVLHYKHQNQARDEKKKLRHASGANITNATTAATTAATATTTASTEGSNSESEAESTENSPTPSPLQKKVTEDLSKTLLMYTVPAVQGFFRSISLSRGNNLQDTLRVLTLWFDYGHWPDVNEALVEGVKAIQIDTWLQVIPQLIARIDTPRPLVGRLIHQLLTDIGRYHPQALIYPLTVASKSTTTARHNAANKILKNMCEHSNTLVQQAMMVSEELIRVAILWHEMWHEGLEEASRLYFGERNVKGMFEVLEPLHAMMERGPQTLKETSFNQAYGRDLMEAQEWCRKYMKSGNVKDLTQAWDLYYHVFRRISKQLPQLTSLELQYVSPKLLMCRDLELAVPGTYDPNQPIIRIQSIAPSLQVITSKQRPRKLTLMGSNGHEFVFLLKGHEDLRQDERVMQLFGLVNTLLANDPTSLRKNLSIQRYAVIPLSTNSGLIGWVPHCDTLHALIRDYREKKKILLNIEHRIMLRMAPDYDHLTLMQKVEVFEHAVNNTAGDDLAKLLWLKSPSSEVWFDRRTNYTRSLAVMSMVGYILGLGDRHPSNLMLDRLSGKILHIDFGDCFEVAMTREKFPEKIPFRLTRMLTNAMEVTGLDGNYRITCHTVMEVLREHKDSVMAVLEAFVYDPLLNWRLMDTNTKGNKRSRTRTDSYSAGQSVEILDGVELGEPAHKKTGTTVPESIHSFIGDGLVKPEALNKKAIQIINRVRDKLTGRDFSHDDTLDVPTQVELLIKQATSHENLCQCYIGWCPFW
PI3K-γ, sequence (P48736 whole entry, species assumed): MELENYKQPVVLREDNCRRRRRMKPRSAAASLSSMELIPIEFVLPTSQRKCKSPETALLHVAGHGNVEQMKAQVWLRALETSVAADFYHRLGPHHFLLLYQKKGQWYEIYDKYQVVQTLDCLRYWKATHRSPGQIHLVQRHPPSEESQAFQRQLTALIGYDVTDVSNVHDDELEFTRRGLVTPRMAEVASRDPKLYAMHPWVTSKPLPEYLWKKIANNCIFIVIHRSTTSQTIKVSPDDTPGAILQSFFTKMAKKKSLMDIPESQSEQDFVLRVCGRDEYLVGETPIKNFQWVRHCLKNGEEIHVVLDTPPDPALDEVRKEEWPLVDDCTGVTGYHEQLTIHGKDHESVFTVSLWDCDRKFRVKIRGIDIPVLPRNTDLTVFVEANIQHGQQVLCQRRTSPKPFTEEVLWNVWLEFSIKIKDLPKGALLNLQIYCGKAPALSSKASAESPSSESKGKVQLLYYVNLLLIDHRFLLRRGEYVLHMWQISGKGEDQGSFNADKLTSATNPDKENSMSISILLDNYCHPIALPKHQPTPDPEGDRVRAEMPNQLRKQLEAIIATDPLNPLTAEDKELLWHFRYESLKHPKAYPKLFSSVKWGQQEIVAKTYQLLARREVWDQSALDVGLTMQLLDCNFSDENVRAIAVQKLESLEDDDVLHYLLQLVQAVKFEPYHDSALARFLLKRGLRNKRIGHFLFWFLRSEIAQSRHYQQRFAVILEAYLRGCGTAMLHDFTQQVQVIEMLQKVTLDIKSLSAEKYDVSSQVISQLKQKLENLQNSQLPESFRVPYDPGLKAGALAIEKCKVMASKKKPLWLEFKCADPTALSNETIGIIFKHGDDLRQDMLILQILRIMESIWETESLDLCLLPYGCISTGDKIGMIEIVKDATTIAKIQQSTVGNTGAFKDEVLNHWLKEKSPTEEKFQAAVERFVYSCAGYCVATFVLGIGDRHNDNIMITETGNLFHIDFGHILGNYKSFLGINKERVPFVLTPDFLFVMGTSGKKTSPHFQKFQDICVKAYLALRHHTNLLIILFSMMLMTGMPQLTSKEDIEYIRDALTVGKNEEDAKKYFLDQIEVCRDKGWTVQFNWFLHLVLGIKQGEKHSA

As for “1-(4-{[4-(1-methylethyl)piperazin-1-yl]carbonyl}phenyl)-3-[4-(4-morpholin-4-yl-6-piperidin-1-yl-1,3,5-triazin-2-yl)phenyl]urea [Example 595]”, the IC50 amounted to 193 nM in experiment [1] (setting [3]), 43 nM in experiment [2] (setting [4]) and 58.5 nM at PI3K-γ.
For “4-yl-6-(3-oxa-8-azabicyclo[3.2.1]oct-8-yl)-1,3,5-triazin-2-yl]phenyl}urea [Example 518]”, the IC50 in experiment [1] (setting [3]) turned out to be 24 nM; in experiment [2] (setting [4]), 4 nM; at PI3K-γ it was 6.5 nM; at PI3K-α, 0.9 nM.
As to “4-{[(4-{4,6-bis[(3S)-3-methylmorpholin-4-yl]-1,3,5-triazin-2-yl}phenyl)carbamoyl]amino}-N-(2-pyrrolidin-1-ylethyl)benzamide [Example 635]”, the concentration for half-maximal inhibition (IC50) in experiment [1] (setting [3]) came out at 106 nM; in experiment [2] (setting [4]) it was 26 nM; at PI3K-γ, 378 nM; on PI3K-α, 22 nM.
On to `O=C(Nc1ccc(-c2nc(N3CCOCC3)nc(N3CCOCC3)n2)cc1)Nc1cccnc1` [Example 2, 1-[4-(4,6-dimorpholin-4-yl-1,3,5-triazin-2-yl)phenyl]-3-pyridin-3-ylurea], for which the IC50 was determined as 43 nM in experiment [1] (setting [5]), 45 nM in experiment [2] (setting [6]) and 1 nM at Human mTOR (FLAG-TOR).
On the same counts, the results for `O=C(Nc1ccc(-c2nc(N3CCOCC3)nc(N3CCOCC3)n2)cc1)Nc1cccs1` [Example 4, 1-[4-(4,6-dimorpholin-4-yl-1,3,5-triazin-2-yl)phenyl]-3-thiophen-2-ylurea] are 43 nM, 45 nM and 1.7 nM.
`O=C(Nc1ccc(Cl)cc1)Nc1ccc(-c2nc(N3CCOCC3)nc(N3CCOCC3)n2)cc1` [Example 8, 1-(4-chlorophenyl)-3-[4-(4,6-dimorpholin-4-yl-1,3,5-triazin-2-yl)phenyl]-urea]: the IC50 in experiment [1] (MTS cell growth assay, three days after drug treatment, listed as 10, read-out: IC50 PC3-mm2) was 1780 nM; in experiment [2] (MTS cell growth assay, three days after drug treatment, listed as 10, read-out: IC50 MDA-MB-361), 2710 nM; at PI3K-α, 20 nM; at PI3K-α (listed as 10), 75 nM; on Human mTOR (FLAG-TOR), 8 nM and 68 nM.
Regarding `O=C(Nc1ccc(-c2nc(N3CCOCC3)nc(N3CCOCC3)n2)cc1)Nc1ccc(F)cc1F` [Example 11, (2,4-difluorophenyl)-3-[4-(4,6-dimorpholin-4-yl-1,3,5-triazin-2-yl)phenyl]urea], the IC50 in experiment [1] (Homo sapiens, PC3MM2, 72 h, read-out: IC50 PC3-mm2, MTS cell growth assay, three days after drug treatment) turned out to be 5630 nM; in experiment [2] (Homo sapiens, MDA-MB-361, 72 h, read-out: IC50 MDA-MB-361, MTS cell growth assay, three days after drug treatment), 794 nM; at Human mTOR (FLAG-TOR), 9.25 nM.
With `CCN(CC)CCOC(=O)c1ccc(NC(=O)Nc2ccc(-c3nc(N4CCOCC4)nc(N4C5CCC4COC5)n3)cc2)cc1` [Example 40, 2-(diethylamino)ethyl 4-[({4-[4-morpholin-4-yl-6-(3-oxa-8-azabicyclo[3.2.1]oct-8-yl)-1,3,5-triazin-2-yl]phenyl}carbamoyl)amino]benzoate], the IC50 in experiment [1] (setting [7]) was 62 nM; in experiment [1] (setting [5]) it was 62 nM; in experiment [2] (setting [8]), below 30 nM; in experiment [2] (setting [6]) it was below 30 nM; on Human mTOR (FLAG-TOR) it was 0.66 nM.
As for `CC(O)c1ccc(NC(=O)Nc2ccc(-c3nc(N4CCOCC4)nc(N4CCOCC4)n3)cc2)cc1` (stereo not shown) [Example 52, 1-[4-(4,6-dimorpholin-4-yl-1,3,5-triazin-2-yl)phenyl]-3-[4-(1-hydroxyethyl)phenyl]urea], the concentration for half-maximal inhibition (IC50) in experiment [1] (setting [5]) was 49 nM; in experiment [2] (setting [6]), below 30 nM; at Human mTOR (FLAG-TOR), 1 nM.
For the compound `C[C@H]1COCCN1c1nc(-c2ccc(NC(=O)Nc3ccc(CO)cc3)cc2)nc(N2CCOCC2)n1` [Example 91, 1-[4-(2-hydroxymethyl)phenyl]-3-(4-{4-[(3S)-3-methylmorpholin-4-yl]-6-morpholin-4-yl-1,3,5-triazin-2-yl}phenyl)urea], the concentration for half-maximal inhibition (IC50) in experiment [1] (setting [5]) worked out at 1570 nM; in experiment [2] (setting [6]) it was 25 nM; at PI3K-γ it was 73 nM; on PI3K-α it was 6 nM.
Turning to `CC(C)Oc1nc(-c2ccc(NC(=O)Nc3ccc(C(=O)NC4CCN(C)CC4)cc3)cc2)nc(N2CCOCC2)n1` [Example 97, 4-({[4-(4-isopropoxy-6-morpholin-4-yl-1,3,5-triazin-2-yl)phenyl]carbamoyl}amino)-N-(1-methylpiperidin-4-yl)benzamide], the IC50 in experiment [1] (Homo sapiens, PC3MM2, 72 h, read-out: IC50 PC3-mm2) was 52 nM; in experiment [2] (Homo sapiens, MDA-MB-361, 72 h, read-out: IC50 MDA-MB-361), below 30 nM; on Human mTOR (FLAG-TOR), 1.1 nM and 1.2 nM.
For the compound `CN(C)CCN(C)C(=O)c1ccc(NC(=O)Nc2ccc(-c3nc(N4CCC4)nc(N4CCOCC4)n3)cc2)cc1` [Example 197, 4-({[4-(4-azetidin-1-yl-6-morpholin-4-yl-1,3,5-triazin-2-yl)phenyl]carbamoyl}amino)-N-[2-(dimethylamino)ethyl]-N-methylbenzamide], the IC50 in experiment [1] (setting [5]) was 49 nM; in experiment [2] (setting [6]), 17 nM; at Human mTOR (FLAG-TOR), 24 nM.
With `CCN(CC)C(=O)[n+]1ccc(NC(=O)Nc2ccc(-c3nc(N4CCOCC4)nc(N4C5CCC4COC5)n3)cc2)cc1` [Example 201, 1-(diethylcarbamoyl)-4-[({4-[4-morpholin-4-yl-6-(3-oxa-8-azabicyclo[3.2.1]oct-8-yl)-1,3,5-triazin-2-yl]phenyl}carbamoyl)amino]pyridinium], the IC50 in experiment [1] (setting [7]) turned out to be 44 nM; in experiment [1] (setting [5]), 44 nM; in experiment [2] (setting [6]), 29 nM; on Human mTOR (FLAG-TOR) it was 0.9 nM.
In the case of `CC(O)c1nc(-c2ccc(NC(=O)Nc3ccncc3)cc2)nc(N2CCOCC2)n1` (stereo not shown) [Example 223, 1-{4-[4-(1-hydroxyethyl)-6-morpholin-4-yl-1,3,5-triazin-2-yl]phenyl}-3-pyridin-4-ylurea], the concentration for half-maximal inhibition (IC50) in experiment [1] (setting [5]) worked out at 229 nM; in experiment [2] (setting [6]), 187 nM; on PI3K-γ, 200 nM; at PI3K-α it was 2 nM.
In the case of `O=C(Nc1ccncc1)Nc1ccc(-c2nc(-c3ccccc3)nc(N3CCOCC3)n2)cc1` [Example 346, 1-[4-(4-morpholin-4-yl-6-phenyl-1,3,5-triazin-2-yl)phenyl]-3-pyridin-4-ylurea], the half-inhibitory concentration (IC50) is below 31 nM in experiment [1] (setting [7]); below 31 nM in experiment [2] (setting [9]); 89 nM on PI3K-γ; 43 nM at PI3K-α; 43.5 nM on PI3K-α (listed as 537).
Consider `CCN1CCN(C(=O)Nc2ccc(NC(=O)Nc3ccc(-c4nc(N5CCOCC5)nc(N5CCOCC5)n4)cc3)cc2)CC1` [Example 503, N-[4-({[4-(4,6-dimorpholin-4-yl-1,3,5-triazin-2-yl)phenyl]carbamoyl}amino)phenyl]-4-ethylpiperazine-1-carboxamide], for which the IC50 was determined as 12.5 nM in experiment [1] (setting [7]), 7.5 nM in experiment [2] (setting [9]), 1.8 nM at PI3K-γ and 0.5 nM at PI3K-α.
On to `C[C@H]1COCCN1c1nc(-c2ccc(NC(=O)Nc3ccc(C(=O)N4CCCC4)cc3)cc2)nc(N2CCOC[C@@H]2C)n1` [Example 571, 1-(4-{4,6-bis[(3S)-3-methylmorpholin-4-yl]-1,3,5-triazin-2-yl}phenyl)-3-[4-(pyrrolidin-1-ylcarbonyl)phenyl]urea], for which the 50% inhibitory concentration (IC50) in experiment [1] (setting [7]) was 168 nM; in experiment [2] (setting [8]), 90 nM; on PI3K-γ it was 108 nM; on PI3K-α, 21 nM.
Consider `CN(C)CCNC(=O)c1ccc(NC(=O)Nc2ccc(-c3nc(N4CCCOCC4)nc(N4CCOCC4)n3)cc2)cc1` [Example 572, N-[2-(dimethylamino)ethyl]-4-[({4-[4-morpholin-4-yl-6-(1,4-oxazepan-4-yl)-1,3,5-triazin-2-yl]phenyl}carbamoyl)amino]benzamide], for which the IC50 in experiment [1] (setting [7]) is 56 nM; in experiment [2] (setting [9]), 13 nM; on PI3K-γ, 15 nM; on PI3K-α it was 0.9 nM.
On the same counts, the results for `C[C@H]1COCCN1c1nc(-c2ccc(NC(=O)Nc3ccc(C(=O)NCCN4CCCC4)cc3)cc2)nc(N2CCOCC2)n1` [Example 622, 4-{[(4-{4-[(3S)-3-methylmorpholin-4-yl]-6-morpholin-4-yl-1,3,5-triazin-2-yl}phenyl)carbamoyl]amino}-N-(2-pyrrolidin-1-ylethyl)benzamide] are 25 nM, 5 nM, 50.5 nM and 3 nM.
On the same counts, the results for `C[C@@H]1COCCN1c1nc(-c2ccc(NC(=O)Nc3ccc(C(=O)NCCN(C)C)cc3)cc2)nc(N2CCOC[C@@H]2C)n1` [Example 634, N-[2-(dimethylamino)ethyl]-4-{[(4-{4-[(3R)-3-methylmorpholin-4-yl]-6-[(3S)-3-methylmorpholin-4-yl]-1,3,5-triazin-2-yl}phenyl)carbamoyl]amino}benzamide] are 16 nM, 5 nM, 122 nM and 6 nM.

Broadly, the IC50 is the concentration at which inhibition is half-maximal.
